Assay results taken from patent US9096536B2, “Asymmetrically substituted anthrapyridazone derivatives as cytostatics” (BS-154 S.P. ZO.O., priority 2011, dated 2015).
Converted amounts (≈) assume the structure as drawn. Like-named read-outs stand apart in the source and are kept apart here.

Key:
[1] = test system: human prostate cancer cell line DU145; test: Cytostatic activity in vitro, prostate cancer DU145; format: cell-based; conditions: 72 h continuous exposure
Excerpt: (§1) Table 5 presents activity in vitro of anthrapiridazone derivatives towards three cell lines of prostate cancer, naturally multidrug resistant, in comparison with references doxorubicin, mitoxantrone and taxol.

HL60/VINC [2] = test: Substrate properties: activity against HL60/VINC in the presence of cyclosporine A (MDR-1 pump inhibitor); format: cell-based, human; conditions: FIG. 2
Excerpt: FIG. 2 shoes experimentally determined substrate properties of selected antgraoyridazone derivatives vs. Doxorubicin and Mitroxantrone. Activity in vitro against human promyelacytic leykemia cell line HL60/VINC in the presence of cyclosporine A (MDR-1 pump inhibitor).

CEM/C2 = test: Cytostatic activity, panel: CEM/C2 resistant to camptotecine; format: cell-based; conditions: for RI CCRF-CEM CEM/C2: IC50(resistant cells)/IC50(sensitive cells)
Excerpt: (§2) Tables 8A and 8B present cytostatic activity in vitro of selected anthrapyridazone derivatives according to the invention against panel of sensitive and resistant cell lines, in comparison with doxorubicin, cisplatine and mitoxantrone.

[3] = test system: human colon adenocarcinoma HT29; test: Cytostatic activity in vitro, colon adenocarcinoma HT29; format: cell-based; conditions: 72 h continuous exposure
Excerpt: (§3) Table 7 presents activity in vitro of selected anthrapyridazone derivatives according to the invention towards sensitive and resistant (MDR-1 type) cell line of human colon adenocarcinoma with resistance induced by mitoxantrone.

HL60/VINC [4] = test: Cytostatic activity in vitro, vincristine-induced resistant subline (MDR-1); format: cell-based, human; conditions: for IC50: 72 h continuous exposure; for RI resistance index HL60/VINC: IC50(resistant cells)/IC50(sensitive cells), HL60/VINC vs HL60, 72 h
uterus cancer MES-SA = test: Cytostatic activity, panel: uterus cancer MES-SA; format: cell-based; conditions: 72 h continuous exposure
Excerpt: as §2

HL60/MX2 = test: Cytostatic activity, panel: HL60/MX2 resistant to mitoxantrone; format: cell-based; conditions: for RI HL60 HL60/MX2: IC50(resistant cells)/IC50(sensitive cells)
Excerpt: as §2

[5] = test system: human promyelocytic leukemia cell line HL-60; test: Cytostatic activity in vitro, HL-60 sensitive line; format: cell-based; conditions: 50% inhibition of cell growth after 72 h continuous exposure, read-out: HL60 IC50
MCF7/DX = test: Cytostatic activity in vitro, resistant breast cancer subline MCF7/DX (MDR-1); format: cell-based, human; conditions: for IC50: 72 h continuous exposure; for RI resistance index MCF7/DX: IC50(resistant cells)/IC50(sensitive cells), MCF7/DX vs MCF7
Excerpt: (§4) It should be mentioned that resistance index is above one order of magnitude better in comparison with doxorubicin and mitoxantrone.

[6] = test system: human prostate cancer cell line LNCaP; test: Cytostatic activity in vitro, prostate cancer LNCaP; format: cell-based; conditions: 72 h continuous exposure
Excerpt: as §1

[7] = test system: human breast cancer cell line MCF7; test: Cytostatic activity in vitro, breast cancer MCF7; format: cell-based; conditions: 72 h continuous exposure
Excerpt: as §4

colon cancer LoVo = test: Cytostatic activity, panel: colon cancer LoVo; format: cell-based; conditions: 72 h continuous exposure
Excerpt: as §2

MES-SA/DX5 = test: Cytostatic activity, panel: MES-SA/DX5 resistant to doxorubicin; format: cell-based; conditions: for RI MES-SA MES-SA/DX5: IC50(resistant cells)/IC50(sensitive cells)
Excerpt: as §2

[8] = test system: human prostate cancer cell line PC3; test: Cytostatic activity in vitro, prostate cancer PC3; format: cell-based; conditions: 72 h continuous exposure
Excerpt: as §1

HL60/DX [9] = test: Substrate properties: activity against HL60/DX in the presence of BSO (MRP pump inhibitor); format: cell-based, human; conditions: FIG. 3
Excerpt: Activity in vitro against human promyelolytic leukemia HL60/DX in the presence of D-L-buthionine-(S,R)-sulphoximine (BSO), MRP pump inhibitor.

[10] = test system: promyelolytic leukemia HL-60; test: Cytostatic activity, panel: promyelolytic leukemia HL-60; format: cell-based; conditions: 72 h continuous exposure
Excerpt: as §2

HL60/DX [11] = test: Cytostatic activity in vitro, doxorubicin-induced resistant subline (MRP); format: cell-based, human; conditions: for IC50: 72 h continuous exposure; for RI resistance index HL60/DX: IC50(resistant cells)/IC50(sensitive cells), HL60/DX vs HL60, 72 h
CT-DNA = test: Interaction with isolated CT-DNA, fluorescence competition with ethidium bromide; format: binding; conditions: for IC50: 50% decrease in fluorescence intensity of DNA-bromide ethydine complex; for Kapp relative constant of DNA-compound bonding: Kapp = (1.26/C50) × KEtBr, KEtBr = 10^7M
Excerpt: It could be supposed that this property explains cytostatic activity of compounds. In Table 9 there are presented quantitative data on the affinity to DNA of tested compounds using the fluorescence method and competitive affinity to DNA of bromine ethydine and tested compounds.

LoVo/DX = test: Cytostatic activity, panel: LoVo/DX resistant to doxorubicin; format: cell-based; conditions: for RI LoVo LoVo/DX: IC50(resistant cells)/IC50(sensitive cells)
Excerpt: as §2

HT29/MIT = test: Cytostatic activity in vitro, mitoxantrone-induced resistant subline HT29/MIT; format: cell-based, human; conditions: for IC50: 72 h continuous exposure; for RI resistance index HT29/MIT: IC50(resistant cells)/IC50(sensitive cells), HT29/MIT vs HT29
Excerpt: as §3

[12] = test system: lymphoblastic leukemia CCRF-CEM; test: Cytostatic activity, panel: lymphoblastic leukemia CCRF-CEM; format: cell-based; conditions: 72 h continuous exposure
Excerpt: as §2

SMILES | Effect of blocking MDR-1 pump with cyclosporine A (CSA) on cytostatic activity (HL60/VINC [2]) | IC50 CEM/C2 (CEM/C2; 72 h continuous exposure) [µg/mL] | RI CCRF-CEM CEM/C2 (CEM/C2) | RI resistance index HL60/VINC (HL60/VINC [4]) | IC50 MES-SA (uterus cancer MES-SA) [µg/mL] | IC50 HL60/MX2 (HL60/MX2; 72 h continuous exposure) [µg/mL] | RI HL60 HL60/MX2 (HL60/MX2) | RI resistance index MCF7/DX (MCF7/DX) | IC50 LoVo (colon cancer LoVo) [µg/mL] | IC50 MES-SA/DX5 (MES-SA/DX5; 72 h continuous exposure) [µg/mL] | RI MES-SA MES-SA/DX5 (MES-SA/DX5) | Effect of MRP protein inhibitor (BSO) on cytostatic activity (HL60/DX [9]) | IC50 HL60 [10] [µg/mL] | RI resistance index HL60/DX (HL60/DX [11]) | IC50 (CT-DNA) [nM] | Kapp relative constant of DNA-compound bonding (CT-DNA) [M⁻¹] | IC50 LoVo/DX (LoVo/DX; 72 h continuous exposure) [µg/mL] | RI LoVo LoVo/DX (LoVo/DX) | RI resistance index HT29/MIT (HT29/MIT) | IC50 CCRF-CEM [12] [µg/mL] | further results
CNCCNc1ccc2c(=O)n(CCN(C)C)nc3c2c1C(=O)c1ccccc1-3 [BS-154, 2-[2-(Dimethyloamino)ethyl]-6-{[2-(methylamino)ethyl]amino}-2,7-dihydro-3H -dibenzo[de,h]cynnoline-3,7-dione] | does not essentially affect the cytostatic activity | 0.00124 ± 0.00137 (≈ 0.00317 µM) | 0.3 | 9.0 | 0.01333 ± 0.00238 (≈ 0.0341 µM) | 0.00545 ± 0.00304 (≈ 0.0139 µM) | 4.9 | 1.0 | 0.00153 ± 0.00102 (≈ 0.00391 µM) | 0.03833 ± 0.01136 (≈ 0.0979 µM) | 2.9 | only partially | 0.00111 ± 0.00002 (≈ 0.00284 µM) | 416.7 | 290 ± 10 | 4.28e+07 | 0.06842 ± 0.01273 (≈ 0.175 µM) | 44.7 | 2.1 | 0.00373 ± 0.00193 (≈ 0.00953 µM) | IC50 [1]: 3 ± 0.7 nM; IC50 [3]: 5.2 ± 1.3 nM; IC50 (HL60/VINC [4]): 8.1 ± 1 nM; IC50 [5]: 0.9 ± 0.1 nM; IC50 (MCF7/DX): 8.7 ± 1.2 nM; IC50 [6]: 2.6 ± 0.3 nM; IC50 [7]: 8.8 ± 0.6 nM; IC50 [8]: 14 ± 3.3 nM; IC50 (HL60/DX [11]): 375 ± 41 nM; IC50 (HT29/MIT): 11.2 ± 2.2 nM
N.N.[Cl][Pt][Cl] [Cisplatina] | – | 0.44 ± 0.19 | 0.3 | – | 2.26 ± 0.58 | 0.56 ± 0.30 | 2.5 | – | 1.59 ± 0.31 | 3.29 ± 0.15 | 1.5 | – | 0.22 ± 0.12 | – | – | – | 2.51 ± 0.38 | 1.6 | – | 1.44 ± 0.49 | –
O=C1c2c(O)ccc(O)c2C(=O)c2c(NCCNCCO)ccc(NCCNCCO)c21 [Mitoxantrone, 1,4-dihydroxy-5,8-bis[2-(2-hydroxyethylamino)ethylamino]-9,10-anthracenodione, reference compound] | has positive influence on maintaining the cytostatic activity | – | 1.1 | 31.3 | – | – | 42.9 | 63.6 | – | – | 2.9 | essentially influences the cytostatic activity | – | 1633.8 | 48 ± 4 | 2.61e+08 | – | 9.5 | 74.9 | – | IC50 ([1]; Homo sapiens, DU-145): 8.5 ± 1.5 nM; IC50 (CEM/C2; Homo sapiens, CEM/C2, 72 h continuous exposure): 0.0028 µg/mL (≈ 0.0063 µM); IC50 ([3]; Homo sapiens, HT-29): 11.4 ± 3.9 nM; IC50 (HL60/VINC [4]; Homo sapiens, HL60/vinc): 65.7 ± 6.7 nM; IC50 (uterus cancer MES-SA; Homo sapiens, MES-SA): 0.23 ± 0.121 µg/mL (≈ 0.517 µM); IC50 (HL60/MX2; Homo sapiens, HL60/MX2, 72 h continuous exposure): 0.356 µg/mL (≈ 0.801 µM); IC50 ([5]; Homo sapiens, HL-60): 2.1 ± 0.2 nM; IC50 (MCF7/DX; Homo sapiens, MCF7/DX): 471 ± 160 nM; IC50 ([6]; Homo sapiens, LNCaP): 7.4 ± 1.1 nM; IC50 ([7]; Homo sapiens, MCF7): 7.4 ± 1.9 nM; IC50 (colon cancer LoVo; Homo sapiens, LoVo): 0.22 ± 0.067 µg/mL (≈ 0.495 µM); IC50 (MES-SA/DX5; Homo sapiens, MES-SA/Dx5, 72 h continuous exposure): 0.66 ± 0.059 µg/mL (≈ 1.48 µM); IC50 ([8]; Homo sapiens): 18.6 ± 3.8 nM; IC50 ([10]; Homo sapiens, HL-60, read-out: IC50 HL60): 0.0083 µg/mL (≈ 0.0187 µM); IC50 (HL60/DX [11]; Homo sapiens, HL-60): 3430 ± 661 nM; IC50 (LoVo/DX; LoVo/DX, 72 h continuous exposure): 2.09 ± 0.519 µg/mL (≈ 4.7 µM); IC50 (HT29/MIT; Homo sapiens, HT-29): 854 ± 158 nM; IC50 ([12]; Homo sapiens, CCRF-CEM): 0.0025 µg/mL (≈ 0.00562 µM)
